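The compound was tested at five concentrations on cells cultured in 96-well plates, with a 48-hour exposure period. Here, GI50 denotes the concentration required for 50% inhibition of growth. Definition used: TGI = concentration required for complete inhibition of growth.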
Key:
Assay in all cases: NCI tumour cell line growth inhibition, 48 h
UACC-257 melanoma = tested on: UACC-257 melanoma
M14 melanoma = tested on: M14 melanoma
SF-539 CNS = tested on: SF-539 CNS
IGROV1 ovarian = tested on: IGROV1 ovarian
BT-549 breast = tested on: BT-549 breast
MDA-MB-435 = tested on: MDA-MB-435
DU-145 prostate = tested on: DU-145 prostate
MOLT-4 leukemia = tested on: MOLT-4 leukemia
MCF7 breast = tested on: MCF7 breast
K-562 leukemia = tested on: K-562 leukemia
HCT-15 colon = tested on: HCT-15 colon
786-0 renal = tested on: 786-0 renal
HL-60(TB) leukemia = tested on: HL-60(TB) leukemia
NCI-H226 lung = tested on: NCI-H226 lung
HCC-2998 colon = tested on: HCC-2998 colon
SR leukemia = tested on: SR leukemia
HS 578T breast = tested on: HS 578T breast
SW-620 colon = tested on: SW-620 colon

Cc1nc2cc(Nc3nc(N4CCCCC4)nc(N4CCOCC4)n3)ccc2n1Cc1ccccc1
GI50 (UACC-257 melanoma): 3.15 µM
TGI (UACC-257 melanoma): > 100 µM
GI50 (M14 melanoma): 3.92 µM
TGI (M14 melanoma): > 100 µM
GI50 (SF-539 CNS): > 100 µM
TGI (SF-539 CNS): > 100 µM
GI50 (IGROV1 ovarian): 3.76 µM
TGI (IGROV1 ovarian): > 100 µM
GI50 (BT-549 breast): 2.51 µM
TGI (BT-549 breast): 7.1 µM
GI50 (MDA-MB-435): 3.41 µM
TGI (MDA-MB-435): > 100 µM
GI50 (DU-145 prostate): 3.48 µM
TGI (DU-145 prostate): > 100 µM
GI50 (MOLT-4 leukemia): 3.6 µM
TGI (MOLT-4 leukemia): > 100 µM
GI50 (MCF7 breast): 3.28 µM
TGI (MCF7 breast): > 100 µM
GI50 (K-562 leukemia): 6.71 µM
TGI (K-562 leukemia): > 100 µM
GI50 (HCT-15 colon): 2.84 µM
TGI (HCT-15 colon): > 100 µM
GI50 (786-0 renal): 1.78 µM
TGI (786-0 renal): 3.23 µM
GI50 (HL-60(TB) leukemia): 2.16 µM
TGI (HL-60(TB) leukemia): 5.49 µM
GI50 (NCI-H226 lung): 4.06 µM
TGI (NCI-H226 lung): > 100 µM
GI50 (HCC-2998 colon): 3.98 µM
TGI (HCC-2998 colon): > 100 µM
GI50 (SR leukemia): 3.57 µM
TGI (SR leukemia): > 100 µM
GI50 (HS 578T breast): 2.71 µM
TGI (HS 578T breast): > 100 µM
GI50 (SW-620 colon): 3.19 µM
TGI (SW-620 colon): > 100 µM
